Reference: patent US20060264388A1, “Method for treating liver cancer by intrahepatic administration of nemorubicin” (priority 2003, published 2006)

How the values were obtained:
human liver tumor = experiment: Efficacy: tumor response, intrahepatic artery nemorubicin q8wk vs q6wk; assay type: in vivo
Protocol: (§1) The objective of the study was to shorten the time interval between treatment administrations from every 8 weeks (q8wk) of the protocol as reported in WO 00/15203 to every 6 weeks (q6wk). This was done in the attempt of improving the therapeutic potential of nemorubicin treatment through an increase of the dose intensity of the therapy, simultaneously safeguarding patient safety.
(§2) Overall, 13 patients were treated with the q8wk schedule (total 25 cycles administered; doses ranged from 200 to 800 mcg/m^2), and 11 patients were treated with the q6wk schedule (total 32 cycles administered; doses were 200 and 600 mcg/m^2).

[1] = tested on: liver lesions of breast cancer patients with liver metastases; conditions: 1500 mcg/m^2 i.v., cited from earlier work
[2] = tested on: tumor cells resistant to anthracyclines and presenting the mdr phenotype; conditions: cited from earlier work
[3] = tested on: tumor cells resistant to L-PAM or cDDP, or cells resistant to Topoisomerase II inhibitors (at-mdr); conditions: cited from earlier work
[4] = tested on: patients with liver cancer; experiment: Hematological toxicity - Platelets, worst CTC Grade by cycle, intrahepatic artery nemorubicin q8wk vs q6wk; assay type: in vivo, human
Protocol: as §1, §2
The NCI-Common Tosicity Criteria grading system (CTC Grade), Version 2.0, was used to report toxicities.
A slight cumulative effect (i.e., increase in frequency but not in severity) was observed after repeated cycles for leucopenia and neutropenia (Tables 2 and 3), mainly with the q8wk schedule.

[5] = tested on: liver metastases from M5076 murine; conditions: M5076 murine reticulosarcoma; cited from earlier work
[6] = tested on: liver metastases from M5076 murine fibrosarcoma; conditions: cited from earlier work
[7] = 200 mcg/m^2 q6wk, All cycles, 11 evaluable cycles
[8] = 200 mcg/m^2 q6wk, Cycle 1, 5 evaluable cycles
[9] = 200 mcg/m^2 q6wk, Cycles > 1, 6 evaluable cycles
[10] = 200 mcg/m^2 q8wk, All cycles, 5 evaluable cycles
[11] = 200 mcg/m^2 q8wk, Cycle 1, 3 evaluable cycles
[12] = 200 mcg/m^2 q8wk, Cycles > 1, 2 evaluable cycles
[13] = 400 mcg/m^2 q8wk, All cycles, 4 evaluable cycles
[14] = 400 mcg/m^2 q8wk, Cycle 1, 3 evaluable cycles
[15] = 600 mcg/m^2 q6wk, All cycles, 18 evaluable cycles
[16] = 600 mcg/m^2 q6wk, Cycle 1, 6 evaluable cycles
[17] = 600 mcg/m^2 q6wk, Cycles > 1, 12 evaluable cycles
[18] = 600 mcg/m^2 q8wk, All cycles, 8 evaluable cycles
[19] = 600 mcg/m^2 q8wk, Cycle 1, 4 evaluable cycles
[20] = 600 mcg/m^2 q8wk, Cycles > 1, 4 evaluable cycles
[21] = 800 mcg/m^2 q8wk, All cycles, 3 evaluable cycles
[22] = 800 mcg/m^2 q8wk, Cycle 1, 3 evaluable cycles

In the case of `COc1cccc2c1C(=O)c1c(O)c3c(c(O)c1C2=O)C[C@@](O)(C(=O)CO)C[C@@H]3O[C@H]1C[C@H](N2CCO[C@H](OC)C2)[C@H](O)[C@H](C)O1.Cl` [nemorubicin, 3′desamino-3′[2(S)methoxy-4-morpholinyl]doxorubicin-hydrochloride], the “lesion area reduction versus baseline” value (human liver tumor; 200 mcg/m^2 q8wk, one patient AJCC stage III (confirmed PR), second cycle) is reported as 95.3%, the “duration of PR” value (human liver tumor; 600 mcg/m^2 q6wk, one patient AJCC stage III (confirmed PR), 5 cycles) is reported as no less than 8 months and the “reduction of measurable lesion area versus baseline” value (human liver tumor; 600 mcg/m^2 q6wk, one patient AJCC stage III (confirmed PR), cycle 3) is reported as 78.2%. The “reduction of the measurable lesion area” value (human liver tumor; 600 mcg/m^2 q6wk, one patient AJCC stage III (confirmed PR), first treatment cycle) was 48.4%, the “duration of PR in the original lesion (right lobe)” value (human liver tumor; 600 mcg/m^2 q8wk, one patient stage III (unconfirmed PR)) was “about 3 months” and the “decrease of lesion area versus baseline” value (human liver tumor; 600 mcg/m^2 q8wk, one patient stage III (unconfirmed PR), after one cycle) was 54.3%. For the same compound, the “decrease in tumor area versus baseline, perfused right lobe” value (human liver tumor; 600 mcg/m^2 q8wk, one patient stage III (unconfirmed PR), cycle 2) was 68.2%, the “decrease of the tumor area versus baseline” value (human liver tumor; 800 mcg/m^2 q8wk, one patient AJCC stage III (unconfirmed PR), after 3 cycles) was 52% and the “confirmed PR out of treated patients” value (human liver tumor; q6wk schedule) was “two confirmed PR out of 11 treated patients”. The “confirmed PR out of treated patients” value (human liver tumor; q8wk schedule) was “one confirmed PR out of 13 treated patients”, the “complete response (CR) in liver lesions” value ([1]; 6 patients) was 1 and the “partial responses (PRs) in liver lesions (2 confirmed and 1 unconfirmed)” value ([1]; 6 patients) was 3. The “patients with response in liver lesions” value [1] was 4 out of 6, the “activity in vitro and in vivo” value [2] was “active” and the cross-resistance [3] was “No cross-resistance”. The “Platelets, worst CTC Grade by cycle: All Grades (%)” value (“Platelets … All Grades (%)” for short) [4, 7] was 10 (91%) (%), the “Platelets, worst CTC Grade by cycle: Grade 1-2 (%)” value (shortened to “Platelets … Grade 1-2 (%)”) [4, 7] was 10 (91%) (%) and the “Platelets … All Grades (%)” value [4, 8] was 4 (80%) (%). The “Platelets … Grade 1-2 (%)” value [4, 8] was 4 (80%) (%), the “Platelets … All Grades (%)” value [4, 9] was 6 (100%) (%) and the “Platelets … Grade 1-2 (%)” value [4, 9] was 6 (100%) (%). For the same compound, the “Platelets … All Grades (%)” value [4, 10] was 5 (100%) (%), the “Platelets … Grade 1-2 (%)” value [4, 10] was 5 (100%) (%) and the “Platelets … All Grades (%)” value [4, 11] was 3 (100%) (%). For the same compound, the “Platelets … Grade 1-2 (%)” value [4, 11] was 3 (100%) (%), the “Platelets … All Grades (%)” value [4, 12] was 2 (100%) (%) and the “Platelets … Grade 1-2 (%)” value [4, 12] was 2 (100%) (%). For the same compound, the “Platelets … All Grades (%)” value [4, 13] was 1 (25%) (%), the “Platelets … Grade 1-2 (%)” value [4, 13] was 1 (25%) (%) and the “Platelets … All Grades (%)” value [4, 14] was 1 (33%) (%). For the same compound, the “Platelets … Grade 1-2 (%)” value [4, 14] was 1 (33%) (%), the “Platelets … All Grades (%)” value [4, 15] was 17 (94%) (%) and the “Platelets … Grade 1-2 (%)” value [4, 15] was 17 (94%) (%). The “Platelets … All Grades (%)” value [4, 16] was 6 (100%) (%), the “Platelets … Grade 1-2 (%)” value [4, 16] was 6 (100%) (%) and the “Platelets … All Grades (%)” value [4, 17] was 11 (92%) (%). The “Platelets … Grade 1-2 (%)” value [4, 17] was 11 (92%) (%), the “Platelets … All Grades (%)” value [4, 18] was 8 (100%) (%) and the “Platelets … Grade 1-2 (%)” value [4, 18] was 7 (87%) (%). For the same compound, the “Platelets, worst CTC Grade by cycle: Grade 3 (%)” value [4, 18] was 1 (12%) (%), the “Platelets … All Grades (%)” value [4, 19] was 4 (100%) (%) and the “Platelets … Grade 1-2 (%)” value [4, 19] was 4 (100%) (%). For the same compound, the “Platelets … All Grades (%)” value [4, 20] was 4 (100%) (%), the “Platelets … Grade 1-2 (%)” value [4, 20] was 3 (75%) (%) and the “Platelets, worst CTC Grade by cycle: Grade 3 (%)” value [4, 20] was 1 (25%) (%). For the same compound, the “Platelets … All Grades (%)” value [4, 21] was 2 (67%) (%), the “Platelets … Grade 1-2 (%)” value [4, 21] was 2 (67%) (%) and the “Platelets … All Grades (%)” value [4, 22] was 2 (67%) (%). The “Platelets … Grade 1-2 (%)” value [4, 22] was 2 (67%) (%), the “thrombocytopenia, maximum severity (CTC Grade)” value ([4]; only one patient treated at 600 mcg/m^2 q8wk after repeated cycles) was “Grade 3” and the “activity against liver metastases, oral versus i.v.” value [5] was “higher after oral administration as compared to the i.v. route”. For the same compound, the “efficacy on liver metastases versus solid primary” value ([6]; administered orally) was “more effective on the liver metastases than on the solid primary”, the “efficacy relative to oral formulation” value ([6]; injectable formulation) was “less effective” and the “best result on survival” value ([6]; oral formulation, administered daily for 5 days) was “doubling of survival time”.
